Measured values published in patent US8569578B1, “Generating transgenic potatoes with novel resistance to potato cyst nematodes by silencing nematode parasitism genes of CLE -1 and CLE-4s” (The United States of America, as represented by the …, priority 2009, dated 2013).
Entries after “also recorded” stand apart in the source; their conditions may differ.

B1: Gr-CLE-4-D: G. rostochiensis CLE gene of class Gr-CLE-4, cDNA SEQ ID NO: 6 (nucleic acid, listed as Globodera rostochiensis)
DNA: ATCATAATTTCCAAAATCCCAATAAAAGCTTCCTCAATAAAGTAAATATGGCCAAGAACGCAATGCTTTGCCTGCTAATTTTGAGCGTTGTTCTCGCTCTCGCATTTGCTACGAATAAAAAGGATGATGAAGAACCGGAGAACCATTCGACCGGCATTTTTGGAAAGGTCGGACGAGTTGTGACCGTGGCACTTGCGATGTCGTCTCGTCTGGGAGGGGCTAACGCAACCCGAGGAGGTGGAGCTGTATATGGAAGAAACTTGAAATCCAATCAATTGCCAAACAACAATTGGATGGCGCCACCTCCTCCAATGGCAATGAGAAGTGCCAAAGTCTATGATTCGAAACATTCTCCTGCTGAATATCTTAAAAAATTTGCTCAAGACTTTCGCCGAAAAACCGGCACGCACTCCCAGCGGCATCACGAAGAAACAACACTGGAACAGGAGAAGCGTGGAGCGCCAGCTGGGCCCGACCCAATACATCACCAAGATACAACATTTGAACAGGAGAAGCGTGGAGCGCCAGCTGGGCCCGACCCAATACATCACCAAGATACAACACTGGAACAGGAGAAGCGTGTAGCGGGAGCTGGGCCCGACCCAATACATCACCAAGATACAAAATTTGAACAGGAGAAGCGTGGAGCGCCAGCTGGGCCCGACCCAATACATCACTGATGCTCTTATTCACAATGCTAAAATATTTTAGACTATAGATAAATTGCTAGCAACAGATAAATGCCTATTCAT

Columns and labels:
Format in all cases: in vivo
[1] = system: Arabidopsis (Columbia-0) roots; assay: in vitro root assay with synthetic CLE peptides on Arabidopsis roots; conditions: 10 μM peptide in assay medium, compared with no peptide or Ag-16p
Excerpt: (§1) Mounting evidence supports that the conserved CLE motif represents the major functional domain of plant CLE proteins. Gr-CLE genes encode four different 12-aa CLE motifs (FIG. 1A). To examine the functional sufficiency of these nematode CLE motifs, we conducted in vitro root assays (Fiers et al. 2005) using synthetic dodecapeptides (GrCLE1-1-12p, GrCLE4-1-12p, GrCLE4-2-12p, and GrCLE4-3-12p) corresponding to the four CLE motifs of Gr-CLE proteins. A 16-aa peptide (Ag-16p) (Fiers et al. 2005) corresponding to the C-terminus of AGAMOUS that has no similarity with plant CLE motifs and a 12-aa CLV3 peptide (CLV3-12p) were used as negative and positive controls, respectively. In addition, several peptides, including a mutated GrCLE1-1 dodecapeptide (GrCLE1-1m-12p, with a Gly-to-Ala conversion as in clv3-1 and clv3-5 mutants), a 14-aa GrCLE1-1 peptide (GrCLE1-1-14p, with one additional N-terminal and one additional C-terminal residue compared to Gr-CLE1-1-12p), and three 13-aa peptides of GrCLE4-1-13p, GrCLE4-2-13p, and GrCLE4-3-13p (all contained an extra N-terminal lysine residue compared to the corresponding dodecapeptides), were synthesized and used in the in vitro root assays.
(§2) Peptides with a purity of >70% were synthesized (Sigma-Aldrich Corp., St. Louis, Mo., U.S.A) and dissolved in filter-sterilized 50 mM sodium phosphate buffer. Three Gr-CLE-1 related peptides were synthesized: GrCLE1-1-12p (12 aa, RVIPGGPDPLHN; SEQ ID NO: 12), GrCLE1-1m-12p (12 aa, RVIPGAPDPLHN; SEQ ID NO: 13, with a G-to-A conversion at position 6), and GrCLE1-1-14p (14 aa, KRVIPGGPDPLHNR; SEQ ID NO: 14). Six Gr-CLE-4 related peptides were synthesized: GrCLE4-1-12p (12 aa, RVAGAGPDPIHH; SEQ ID NO: 15), GrCLE4-1-13p (13 aa, KRVAGAGPDPIHH; SEQ ID NO: 16), GrCLE4-2-12p (12 aa, RAVPAGPDPKHH; SEQ ID NO: 17), GrCLE4-2-13p (13 aa, KRAVPAGPDPKHH; SEQ ID NO: 18), GrCLE4-3-12p (12 aa, RGAPAGPDP IHH; SEQ ID NO: 19), and GrCLE4-3-13p (13 aa, KRGAPAGPDPIHH; SEQ ID NO: 20). Positive and negative control peptides included CLV3-12p (12 aa, RTVPSGPDPLHH; SEQ ID NO: 21) and Ag-16p (16 aa, APNNHHYSSAGRQDQT; SEQ ID NO: 22) (Fiers et al., 2005).
(§3) For peptide treatments, seeds of wild-type Arabidopsis (Columbia-0) and potato, nonhost and host of G. rostochiensis, respectively, were surface-sterilized and plated on square plates (8-12 seeds per plate) containing the assay medium (Fiers et al. 2005, supra) with 10 μM of each peptide. Assay plates were placed vertically in a growth chamber and cultured at 23° C. for 16 h of light and 8 h of dark. The root length was measured from the base of the hypocotyl to the tip of the primary root at several time points after plating. Two independent experiments were conducted.

potato roots = assay: in vitro root assay with synthetic CLE peptides on potato roots; conditions: 10 μM peptide in assay medium, compared with no peptide or Ag-16p
Excerpt: as §1, §2, §3

potato hairy roots = assay: overexpression of Gr-CLE genes in potato hairy roots; conditions: measured at 4, 6, 8 and 10 days after dissecting; compared with vector control
Excerpt: To examine root meristems, primary root tips were excised from peptide treated Arabidopsis seedlings or from transgenic potato hairy roots and immediately mounted in water onto a glass slide. Roots were examined under an Olympus BX-50 microscope equipped with Nomarski optics and images were captured using a QImaging Retiga EXi digital CCD camera (QImaging, Surrey, BC, Canada). The root apical meristem (RAM) regions of individual primary roots that covered the distance from the position around the quiescent center to the position where elongated root cells immediately follow cytoplasm-dense meristematic cells were measured microscopically. The collected data were analyzed using the MetaMorph imaging analysis software (Universal Imaging Corporation, Downingtown, Pa., U.S.A.)
A. rhizogenes strain 15834 was transformed with individual transgene constructs of interest and used for the generation of potato hairy roots as described previously (Wang et al. 2007. Mol. Plant Pathol. 8:423-436) with some modifications. Potato stem pieces from tissue cultures were incubated with the transformed A. rhizogenes cell suspension for 10 mins, then transferred onto the callus induction medium containing 1×MS salts (Sigma-Aldrich), 26.7 μM Glycine, 4 μM Nicotinic Acid, 2.4 μM Pyridoxine HCL (Sigma-Aldrich), 1.2 μM Thiamine HCL (Sigma-Aldrich), 0.5 μM Folic Acid, 0.2 μM d-biotin (Sigma-Aldrich), 0.01% Myo-inositol (Acros, Morris Plains, N.J., U.S.A.), 3% sucrose, 0.001% 6-BAP (Sigma-Aldrich), 0.002% NAA (Sigma-Aldrich), and 1% agar and cultivated for four days at 24° C. without light. The infected stem pieces were then cultured on the propagation medium containing 1×MS salts, 1.2 mM NaH2PO4, 0.01% Myo-inositol, 0.1% Thiamine HCl, 3% sucrose, 1% agar, 50 μg/mL of kanamycin, and 238 μg/mL of timentin (GlaxoSmithKline). Timentin was used to inhibit the growth of A. rhizogenes 15834 and kanamycin was added to select for transformed roots. Approximately 12-15 days after root emergence, 1 cm-long root tips were dissected and cultured on vertical plates containing the propagation medium with 119 μg/mL of timentin and the root growth rate was measured at different time points.

Row | Molecule | suppression of root growth (length of main root) [1] | suppression of root growth (length of main root) (potato roots) | suppression of root growth (length of main root) ([1]; listed as Gr-CLE4-2-12p) | suppression of root growth (length of main root) (potato roots; listed as Gr-CLE4-2-12p) | length of primary roots of transgenic potato hairy root lines (potato hairy roots)
1 | KRAVPAGPDPKHH (LRAVPAGPDPLHH; listed as Globodera rostochiensis) [GrCLE4-2-13p, 13 aa peptide with extra N-terminal lysine] | did not show activities on root suppression | did not show activities on root suppression |  |  | 
2 | KRGAPAGPDPIHH (LRGAPAGPDPIHH; listed as Globodera rostochiensis) [GrCLE4-3-13p, 13 aa peptide with extra N-terminal lysine] | did not show activities on root suppression | did not show activities on root suppression |  |  | 
3 | KRVAGAGPDPIHH (LRVAGAGPDPIHH; listed as Globodera rostochiensis) [GrCLE4-1-13p, 13 aa peptide with extra N-terminal lysine] | did not show activities on root suppression | did not show activities on root suppression |  |  | 
4 | KRVIPGGPDPLHNR (listed as Globodera rostochiensis) [GrCLE1-1-14p, 14 aa GrCLE1-1 peptide withone additional N-terminal and C-terminal residue] | significantly shorter; also recorded: comparable level of root suppression activity as GrCLE1-1-12p | significantly shorter |  |  | 
5 | RAVPAGPDPKHH (RAVPAGPDPLHH; listed as Globodera rostochiensis) [GrCLE4-2-12p, 12 aa Gr-CLE-4 related peptide] | significantly shorter | significantly shorter | suppressed root growth | suppressed root growth | 
6 | RGAPAGPDP IHH (RGAPAGPDPIHH; listed as Globodera rostochiensis) [GrCLE4-3-12p, 12 aa Gr-CLE-4 related peptide] | suppressed root growth; also recorded: significantly shorter | suppressed root growth; also recorded: significantly shorter |  |  | 
7 | RVAGAGPDPIHH (listed as Globodera rostochiensis) [GrCLE4-1-12p, 12 aa Gr-CLE-4 related peptide] | suppressed root growth; also recorded: significantly shorter | suppressed root growth; also recorded: significantly shorter |  |  | 
8 | RVIPGAPDPLHN (listed as Globodera rostochiensis) [GrCLE1-1m-12p, mutated GrCLE1-1 dodecapeptide with a G-to-A conversion at position 6] | significantly shorter | significantly shorter |  |  | 
9 | B1 |  |  |  |  | short root phenotype
